In US11872262B2, “Means and methods for treating bacterial infections” (VIB VZW, priority 2017, dated 2024):
Residues, ends and D or L forms follow the SMILES beside them.

These compounds were tested on E. coli O157:H7. Conditions: screening-stage peptides tested at 1, 6, 12 and 25 μg/mL.
Format: cell-based, Escherichia coli
Description: In the present invention we used the statistical thermodynamics algorithm TANGO to identify aggregation prone regions (APR) in the proteome of E. coli strain O157:H7. This yielded 3535 sequences of at least 6 amino acids in length and a TANGO score of at least 20%. In order to generate efficient aggregation seeds, we employed a previously devised tandem repeat design ^19, 21, in which the APRs are repeated once and separated by a linker. Given the length limitation on solid phase peptide synthesis with regard to yield and purity, we focused on the 1542 APRs with a length of 7 amino acids. In order to maximize the potential of these peptides to induce aggregation in E. coli, we ranked the APRs by their frequency of occurrence throughout the E. coli proteome, allowing a single amino acid mismatch, and selected the first 75 most frequently occurring sequences from this list (Table 4). In the design pattern, and in order to increase the colloidal stability of these aggregating peptides, the APRs are flanked by aggregation gatekeepers, a class of residues that was previously shown to reduce aggregation kinetics^22-24. […] To generate the tandem we used a single proline residue as a linker between the gatekeeper-flanked APRs. In addition to the 75 peptides generated in this fashion, we added 2 variants of each of the first 25 peptides in the list by randomly mutating one residue in the first APR repeat to arginine to further modulate the aggregation propensity of the peptides (Table 4). All the peptides were generated using solid phase synthesis at 200 nmole scale and dissolved in DMSO to a theoretical stock concentration of 2 mM (assuming 100% synthesis efficiency). Peptide activity on the growth of E. coli O157:H7 was measured at dilutions of the peptide corresponding to concentrations of 1, 6, 12 and 25 μg/mL. […] The Matthews Correlations Coefficient (MCC) with the measured activity was 0.1 at 12 μg/mL and 0.24 at 25 μg/mL.

| Compound | E. coli O157 (apparent MIC in screen) [µg/mL] |
| --- | --- |
| CC(C)C[C@H](NC(=O)[C@H](CCC(N)=O)NC(=O)[C@H](CCCNC(=N)N)NC(=O)[C@@H]1CCCN1C(=O)[C@H](CCCNC(=N)N)NC(=O)[C@H](CCCNC(=N)N)NC(=O)[C@H](CC(C)C)NC(=O)[C@H](CC(C)C)NC(=O)[C@@H](NC(=O)[C@H](CC(C)C)NC(=O)[C@H](CC(C)C)NC(=O)[C@H](CC(C)C)NC(=O)[C@H](CCC(N)=O)NC(=O)[C@@H](N)CCCNC(=N)N)[C@@H](C)O)C(=O)N[C@@H](CC(C)C)C(=O)N[C@@H](CC(C)C)C(=O)N[C@H](C(=O)N[C@@H](CC(C)C)C(=O)N[C@@H](CC(C)C)C(=O)N[C@@H](CCCNC(=N)N)C(=O)N[C@@H](CCCNC(=N)N)C(=O)O)[C@@H](C)O [Peptide P72] (H-RQLLLTLLRRPRQLLLTLLRR-OH; N-terminus and C-terminus assumed) | 25 |
| CC(C)C[C@H](NC(=O)[C@H](C)NC(=O)[C@H](CC(C)C)NC(=O)[C@@H](NC(=O)[C@H](C)NC(=O)[C@H](CO)NC(=O)[C@H](CCCNC(=N)N)NC(=O)[C@@H]1CCCN1C(=O)[C@H](CCCNC(=N)N)NC(=O)[C@H](CCCNC(=N)N)NC(=O)[C@H](CC(C)C)NC(=O)[C@H](CC(C)C)NC(=O)[C@H](C)NC(=O)[C@H](CC(C)C)NC(=O)[C@@H](NC(=O)[C@H](C)NC(=O)[C@H](CO)NC(=O)[C@@H](N)CCCNC(=N)N)C(C)C)C(C)C)C(=O)N[C@@H](CC(C)C)C(=O)N[C@@H](CCCNC(=N)N)C(=O)N[C@@H](CCCNC(=N)N)C(=O)O [Peptide P18] (H-RSAVLALLRRPRSAVLALLRR-OH; N-terminus and C-terminus assumed) | 12 |
| CC(C)C[C@H](NC(=O)[C@H](CC(N)=O)NC(=O)[C@H](CC(C)C)NC(=O)[C@H](CC(C)C)NC(=O)[C@@H](NC(=O)[C@H](CC(C)C)NC(=O)[C@H](CC(C)C)NC(=O)[C@H](CCCNC(=N)N)NC(=O)[C@@H]1CCCN1C(=O)[C@H](CCCNC(=N)N)NC(=O)[C@H](CCCNC(=N)N)NC(=O)[C@H](CC(C)C)NC(=O)[C@H](CC(N)=O)NC(=O)[C@H](CC(C)C)NC(=O)[C@H](CC(C)C)NC(=O)[C@@H](NC(=O)[C@H](CC(C)C)NC(=O)[C@H](CC(C)C)NC(=O)[C@@H](N)CCCNC(=N)N)[C@@H](C)O)[C@@H](C)O)C(=O)N[C@@H](CCCNC(=N)N)C(=O)N[C@@H](CCCNC(=N)N)C(=O)O [Peptide P49] (H-RLLTLLNLRRPRLLTLLNLRR-OH; N-terminus and C-terminus assumed) | 12 |
| CC(C)C[C@H](NC(=O)[C@H](C)NC(=O)[C@H](CC(C)C)NC(=O)[C@H](CCCNC(=N)N)NC(=O)[C@@H]1CCCN1C(=O)[C@H](CCCNC(=N)N)NC(=O)[C@H](CCCNC(=N)N)NC(=O)[C@H](CC(C)C)NC(=O)[C@H](CC(C)C)NC(=O)[C@H](CC(C)C)NC(=O)[C@H](CCCNC(=N)N)NC(=O)[C@H](CC(C)C)NC(=O)[C@H](C)NC(=O)[C@H](CC(C)C)NC(=O)[C@@H](N)CCCNC(=N)N)C(=O)N[C@@H](C)C(=O)N[C@@H](CC(C)C)C(=O)N[C@@H](CC(C)C)C(=O)N[C@@H](CC(C)C)C(=O)N[C@@H](CCCNC(=N)N)C(=O)N[C@@H](CCCNC(=N)N)C(=O)O [Peptide P79] (H-RLALRLLLRRPRLALALLLRR-OH; N-terminus and C-terminus assumed) | 12 |
| CC(C)C[C@H](NC(=O)CNC(=O)[C@H](CCCNC(=N)N)NC(=O)[C@@H]1CCCN1C(=O)[C@H](CCCNC(=N)N)NC(=O)[C@H](CCCNC(=N)N)NC(=O)[C@H](C)NC(=O)[C@H](CC(C)C)NC(=O)[C@H](CC(C)C)NC(=O)[C@H](C)NC(=O)[C@H](CC(C)C)NC(=O)[C@H](CC(C)C)NC(=O)CNC(=O)[C@@H](N)CCCNC(=N)N)C(=O)N[C@@H](CC(C)C)C(=O)N[C@@H](C)C(=O)N[C@@H](CC(C)C)C(=O)N[C@@H](CC(C)C)C(=O)N[C@@H](C)C(=O)N[C@@H](CCCNC(=N)N)C(=O)N[C@@H](CCCNC(=N)N)C(=O)O [Peptide P14] (H-RGLLALLARRPRGLLALLARR-OH; N-terminus and C-terminus assumed) | 12 |
| CC(C)C[C@H](NC(=O)[C@H](C)NC(=O)[C@H](CC(C)C)NC(=O)[C@H](CC(C)C)NC(=O)[C@H](CC(C)C)NC(=O)[C@H](CCCNC(=N)N)NC(=O)[C@@H]1CCCN1C(=O)[C@H](CCCNC(=N)N)NC(=O)[C@H](CCCNC(=N)N)NC(=O)[C@H](CO)NC(=O)[C@H](CC(C)C)NC(=O)[C@H](CC(C)C)NC(=O)[C@H](C)NC(=O)[C@H](CC(C)C)NC(=O)[C@H](CC(C)C)NC(=O)[C@H](CC(C)C)NC(=O)[C@@H](N)CCCNC(=N)N)C(=O)N[C@@H](CC(C)C)C(=O)N[C@@H](CO)C(=O)N[C@@H](CCCNC(=N)N)C(=O)N[C@@H](CCCNC(=N)N)C(=O)O [Peptide P3] (H-RLLLALLSRRPRLLLALLSRR-OH; N-terminus and C-terminus assumed) | 12 |
| CC(C)C[C@H](NC(=O)[C@H](C)NC(=O)[C@H](CCCNC(=N)N)NC(=O)[C@@H]1CCCN1C(=O)[C@H](CCCNC(=N)N)NC(=O)[C@H](CCCNC(=N)N)NC(=O)[C@H](CCCNC(=N)N)NC(=O)[C@@H](NC(=O)[C@H](C)NC(=O)[C@@H](NC(=O)[C@H](CC(C)C)NC(=O)[C@H](CC(C)C)NC(=O)[C@H](C)NC(=O)[C@@H](N)CCCNC(=N)N)[C@@H](C)O)C(C)C)C(=O)N[C@@H](CC(C)C)C(=O)N[C@H](C(=O)N[C@@H](C)C(=O)N[C@H](C(=O)N[C@@H](CC(C)C)C(=O)N[C@@H](CCCNC(=N)N)C(=O)N[C@@H](CCCNC(=N)N)C(=O)O)C(C)C)[C@@H](C)O [Peptide P116] (H-RALLTAVRRRPRALLTAVLRR-OH; N-terminus and C-terminus assumed) | 6 |
| CC(C)C[C@H](NC(=O)CNC(=O)[C@H](CCCNC(=N)N)NC(=O)[C@@H]1CCCN1C(=O)[C@H](CCCNC(=N)N)NC(=O)[C@H](CCCNC(=N)N)NC(=O)[C@H](C)NC(=O)[C@H](CC(C)C)NC(=O)[C@H](CCCNC(=N)N)NC(=O)[C@H](C)NC(=O)[C@H](CC(C)C)NC(=O)[C@H](CC(C)C)NC(=O)CNC(=O)[C@@H](N)CCCNC(=N)N)C(=O)N[C@@H](CC(C)C)C(=O)N[C@@H](C)C(=O)N[C@@H](CC(C)C)C(=O)N[C@@H](CC(C)C)C(=O)N[C@@H](C)C(=O)N[C@@H](CCCNC(=N)N)C(=O)N[C@@H](CCCNC(=N)N)C(=O)O [Peptide P89] (H-RGLLARLARRPRGLLALLARR-OH; N-terminus and C-terminus assumed) | 12 |
| CC(C)C[C@H](NC(=O)[C@H](C)NC(=O)[C@H](CCCNC(=N)N)NC(=O)[C@@H]1CCCN1C(=O)[C@H](CCCNC(=N)N)NC(=O)[C@H](CCCNC(=N)N)NC(=O)[C@H](CC(C)C)NC(=O)[C@H](CC(C)C)NC(=O)[C@H](CC(C)C)NC(=O)[C@H](CO)NC(=O)[C@@H](NC(=O)[C@H](CC(C)C)NC(=O)[C@H](C)NC(=O)[C@@H](N)CCCNC(=N)N)C(C)C)C(=O)N[C@H](C(=O)N[C@@H](CO)C(=O)N[C@@H](CC(C)C)C(=O)N[C@@H](CC(C)C)C(=O)N[C@@H](CC(C)C)C(=O)N[C@@H](CCCNC(=N)N)C(=O)N[C@@H](CCCNC(=N)N)C(=O)O)C(C)C [Peptide P58] (H-RALVSLLLRRPRALVSLLLRR-OH; N-terminus and C-terminus assumed) | 12 |
| CC(C)C[C@H](NC(=O)[C@H](C)NC(=O)[C@H](CC(C)C)NC(=O)[C@@H](NC(=O)[C@H](C)NC(=O)[C@H](CO)NC(=O)[C@H](CCCNC(=N)N)NC(=O)[C@@H]1CCCN1C(=O)[C@H](CCCNC(=N)N)NC(=O)[C@H](CCCNC(=N)N)NC(=O)[C@H](CC(C)C)NC(=O)[C@H](CC(C)C)NC(=O)[C@H](C)NC(=O)[C@H](CC(C)C)NC(=O)[C@H](CCCNC(=N)N)NC(=O)[C@H](C)NC(=O)[C@H](CO)NC(=O)[C@@H](N)CCCNC(=N)N)C(C)C)C(=O)N[C@@H](CC(C)C)C(=O)N[C@@H](CCCNC(=N)N)C(=O)N[C@@H](CCCNC(=N)N)C(=O)O [Peptide P93] (H-RSARLALLRRPRSAVLALLRR-OH; N-terminus and C-terminus assumed) | 25 |
| CC(C)C[C@H](NC(=O)[C@H](C)NC(=O)[C@H](CC(C)C)NC(=O)[C@@H](NC(=O)[C@@H](NC(=O)[C@H](C)NC(=O)[C@H](CCCNC(=N)N)NC(=O)[C@@H]1CCCN1C(=O)[C@H](CCCNC(=N)N)NC(=O)[C@H](CCCNC(=N)N)NC(=O)[C@H](CC(C)C)NC(=O)[C@H](CC(C)C)NC(=O)[C@H](C)NC(=O)[C@H](CC(C)C)NC(=O)[C@@H](NC(=O)[C@@H](NC(=O)[C@H](C)NC(=O)[C@@H](N)CCCNC(=N)N)[C@@H](C)O)C(C)C)[C@@H](C)O)C(C)C)C(=O)N[C@@H](CC(C)C)C(=O)N[C@@H](CCCNC(=N)N)C(=O)N[C@@H](CCCNC(=N)N)C(=O)O [Peptide P29] (H-RATVLALLRRPRATVLALLRR-OH; N-terminus and C-terminus assumed) | 25 |
